Source: patent publication US10183949B2, “Pyrimidinone derivative having autotaxin-inhibitory activity” (The University of Tokyo, priority 2014, dated 2019)

The molecules below were run against T1, Human autotaxin enzyme (Homo sapiens, UniProt Q13822) (assay: Evaluation of autotaxin inhibitor, 18:0 Lyso PC / choline assay (Test Example 2)). Settings: human autotaxin enzyme, 18:0 Lyso PC substrate, choline assay, room temperature 2 hours; read-out: Inhibitor activity (IC50).
T1 construct: purchased R&D System
Type: biochemical
Procedure, shortened: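 Human autotaxin in 100 mM Tris-HCl pH 7.5, 150 mM NaCl, 5 mM MgCl2, 0.05% Triton X-100 reacted with 18:0 Lyso PC (200 μM stock) and test compound 2 h at room temperature. Released choline quantified via choline oxidase/peroxidase resorufin fluorescence (ex 531/em 598 nm, 20 min); inhibition vs no-compound and no-enzyme controls, concentration-response curve.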

| IC50 [nM] | SMILES |
| --- | --- |
| 10 to 100 | Cc1nc(-c2ccc(Cl)cc2NC(=O)C2CC2)cc(=O)n1CC(=O)NC(C)(C)CO [Compound I-0422] |
| 10 to 100 | Cc1nc(-c2ccc(Cl)cc2NC(=O)C2CC2)cc(=O)n1CC(=O)NCC(C)(C)O [Compound I-0423] |
| 10 to 100 | Cc1nc(-c2ccc(Cl)cc2NC(=O)C2CC2)cc(=O)n1CC(=O)NC(C)(C)CF [Compound I-0424] |
| 10 to 100 | COC(=O)Nc1cc(Cl)ccc1-c1cc(=O)n(CC(=O)N2CCC(O)CC2)c(C)n1 [Compound I-0425] |
| 10 to 100 | CC(C)(C)C(=O)Nc1cc(Cl)ccc1-c1cc(=O)n(Cc2cccc(C(=O)O)c2)cn1 [Compound I-0427] |
| 10 to 100 | COC(=O)Nc1cc(C#N)ccc1-c1cc(=O)n(CC(=O)NCC2CNC(=O)C2)c(C)n1 (centres unmarked) [Compound I-0428] |
| < 10 | COC(=O)Nc1cc(C#N)ccc1-c1cc(=O)n(CC(=O)NCc2cc(=O)[nH]o2)c(C)n1 [Compound I-0429] |
| 10 to 100 | COC(=O)Nc1cc(C#N)ccc1-c1cc(=O)n(CC(=O)NCC2CNC(=O)O2)c(C)n1 (centres unmarked) [Compound I-0430] |
| 10 to 100 | Cc1nc(-c2ccc(Cl)cc2NC(=O)C2CC2)cc(=O)n1CC(=O)NCc1c[nH]nn1 [Compound I-0431] |
| 10 to 100 | COC(=O)Nc1cc(Cl)ccc1-c1cc(=O)n(CC(=O)N2CCC(C#N)CC2)c(C)n1 [Compound I-0433] |
| 10 to 100 | Cc1nc(-c2ccc(Cl)cc2NC(=O)C2CC2)cc(=O)n1CC(=O)NCC1(CO)CC1 [Compound I-0434] |
| 10 to 100 | Cc1nc(-c2ccc(Cl)cc2NC(=O)C2CC2)cc(=O)n1CC(=O)N1CCC(O)CC1 [Compound I-0435] |
| 10 to 100 | COC(=O)Nc1cc(Cl)ccc1-c1cc(=O)n(CC(=O)NCC2CCC(=O)N2)c(C)n1 (centres unmarked) [Compound I-0437] |
| 10 to 100 | COC(=O)Nc1cc(Cl)ccc1-c1cc(=O)n(CC(=O)NCC2CNC(=O)C2)c(C)n1 (centres unmarked) [Compound I-0438] |
| < 10 | COC(=O)Nc1cc(Cl)ccc1-c1cc(=O)n(CC(=O)NCc2cc(=O)[nH]o2)c(C)n1 [Compound I-0439] |
| 10 to 100 | COC(=O)Nc1cc(Cl)ccc1-c1cc(=O)n(CC(=O)NC2(C(=N)NO)CC2)c(C)n1 [Compound I-0440] |
| 100 to 1000 | COC(=O)Nc1cc(Cl)ccc1-c1cc(=O)n(CC(=O)N2CC(C(C)(C)O)C2)c(C)n1 [Compound I-0441] |
| 10 to 100 | COC(=O)Nc1cc(Cl)ccc1-c1cc(=O)n(CC(=O)NCC2CNC(=O)O2)c(C)n1 (centres unmarked) [Compound I-0442] |
| ≥ 1000 | O=C(Cn1cnc(-c2ccc(Cl)cc2)cc1=O)NCCNC(=O)c1ccc2nn[nH]c2c1 [Compound I-0443] |
| < 10 | COC(=O)Nc1cc(C#N)ccc1-c1cc(=O)n(CC(=O)NC(C)(C)C(F)(F)F)c(C)n1 [Compound I-0444] |
| < 10 | COC(=O)Nc1cc(C#N)ccc1-c1cc(=O)n(CC(=O)N2CCC(C(N)=O)CC2)c(C)n1 [Compound I-0445] |
| 10 to 100 | COC(=O)Nc1cc(C#N)ccc1-c1cc(=O)n(CC(=O)N2CCN(C(N)=O)CC2)c(C)n1 [Compound I-0446] |
| 100 to 1000 | CC(C)(C)C(=O)Nc1cc(Cl)ccc1-c1cc(=O)n(CC(=O)Nc2cnccc2O)cn1 [Compound I-0447] |
| 10 to 100 | Cc1nc(-c2ccc(Cl)cc2NC(=O)C2CC2)cc(=O)n1CC(=O)NCC1CCC(=O)N1 (centres unmarked) [Compound I-0450] |
| 10 to 100 | Cc1nc(-c2ccc(Cl)cc2NC(=O)C2CC2)cc(=O)n1CC(=O)NCC1CNC(=O)C1 (centres unmarked) [Compound I-0451] |
| 10 to 100 | Cc1nc(-c2ccc(Cl)cc2NC(=O)C2CC2)cc(=O)n1CC(=O)NCc1cc(=O)[nH]o1 [Compound I-0452] |
| 100 to 1000 | Cc1nc(-c2ccc(Cl)cc2NC(=O)C2CC2)cc(=O)n1CC(=O)N1CC(C(C)(C)O)C1 [Compound I-0454] |
| 10 to 100 | COC(=O)Nc1cc(Cl)ccc1-c1cc(=O)n(CC(=O)NC2(C(F)(F)F)CC2)c(C)n1 [Compound I-0455] |
| 10 to 100 | Cc1nc(-c2ccc(Cl)cc2NC(=O)C2CC2)cc(=O)n1CC(=O)NCC1CNC(=O)O1 (centres unmarked) [Compound I-0456] |
